Data as given in patent publication US8802679B2, “Glycine compound” (Astellas Pharma Inc., priority 2009, dated 2014).
Where a name gives a salt, the structure may show the parent alone.

Tests used:
rat VAP-1 enzyme (SSAO) = rat VAP-1 enzyme (SSAO) (Rattus norvegicus (Rat), UniProt O08590); experiment: Inhibitory effect on rat VAP-1 enzyme (SSAO) activity, radiochemistry-enzymatic assay with 14C-benzylamine; type: biochemical; settings: enzyme from CHO cells expressing rat VAP-1; 14C-benzylamine 1×10^−5 mol/L
Procedure: Inhibitory Effect of Compound on Rat VAP-1 Enzyme (SSAO) Activity
(§1) A rat VAP-enzyme 1 (SSAO) activity was measured by a radiochemistry-enzymatic assay using ^14C-benzylamine as an artificial substrate. An enzyme suspension prepared from CHO (Chinese Hamster Ovary) cells stably expressing a rat VAP-enzyme 1 (SSAO) was preincubated with the compound of the present invention in a 96-well microplate at room temperature for 30 minutes. Subsequently, the enzyme suspension was incubated with ^14C-benzylamine (a final concentration of 1×10^−5 mol/L) to a final volume of […] at 37° C. for 1 hour. The enzymatic reaction was stopped by the addition of 2 mol/L (50 μL) of citric acid. The oxidation products were extracted directly in a 200-μL toluene scintillator, and the radioactivity was measured with a scintillation spectrometer.
(§2) In addition, the inhibitory activity is expressed in IC50 (nmol/L).

[1] = tested on: VAP-1 enzyme activity in plasma; experiment: Plasma VAP-1 enzyme activity after oral administration to rats (radio-enzyme assay); type: in vivo, Wistar male rats; settings: rat, oral 1 mg/kg; for Inhibition Ratio (%) of plasma VAP-1 activity, 1 h: 1 h after administration; for Inhibition Ratio (%) of plasma VAP-1 activity, 3 h: 3 h after administration; for Inhibition Ratio (%) of plasma VAP-1 activity, 6 h: 6 h after administration; for Inhibition Ratio (%) of plasma VAP-1 activity, 12 h: 12 h after administration
Procedure: Eight-week to twelve-week Wistar male rats were fasted for 20 hours, and orally administered with a test drug (1 mg/1 kg). Heparin blood collection from the tail vein was performed immediately before the administration, and at 1 h, 3 h, 6 h, and 12 h after the administration. The resulting blood was subjected to centrifugation at 14000 rpm for 5 minutes to separate plasma, and the VAP-1 enzyme activity in the resulting plasma was measured by a radio-enzyme assay method.
For the radio-enzyme assay method, ^14C-benzylamine which is a synthetic substrate (10 μM) was reacted with the resulting plasma at 37° C., and the resulting metabolite was extracted with a mixture of toluene/ethyl acetate. The radioactivity was measured and taken as a VAP-1 enzyme activity in the plasma. The effect of the test drug was calculated from the ratio (%) of the VAP-1 activity after the administration of the test drug relative to the VAP-1 activity in the plasma immediately before the administration (100%).

[2] = target: human VAP-1 enzyme (SSAO) (Homo sapiens (Human), UniProt Q16853); experiment: Inhibitory effect on human VAP-1 enzyme (SSAO) activity, radiochemistry-enzymatic assay with 14C-benzylamine; type: biochemical; settings: enzyme from CHO cells expressing human VAP-1; 14C-benzylamine 1×10^−5 mol/L
Procedure: Inhibitory Effect of Compound on Human VAP-1 Enzyme (SSAO) Activity
as §1, with “human VAP-1 enzyme” for “rat VAP-enzyme 1”
as §2

Chain of human VAP-1 enzyme (SSAO) (Q16853 whole entry): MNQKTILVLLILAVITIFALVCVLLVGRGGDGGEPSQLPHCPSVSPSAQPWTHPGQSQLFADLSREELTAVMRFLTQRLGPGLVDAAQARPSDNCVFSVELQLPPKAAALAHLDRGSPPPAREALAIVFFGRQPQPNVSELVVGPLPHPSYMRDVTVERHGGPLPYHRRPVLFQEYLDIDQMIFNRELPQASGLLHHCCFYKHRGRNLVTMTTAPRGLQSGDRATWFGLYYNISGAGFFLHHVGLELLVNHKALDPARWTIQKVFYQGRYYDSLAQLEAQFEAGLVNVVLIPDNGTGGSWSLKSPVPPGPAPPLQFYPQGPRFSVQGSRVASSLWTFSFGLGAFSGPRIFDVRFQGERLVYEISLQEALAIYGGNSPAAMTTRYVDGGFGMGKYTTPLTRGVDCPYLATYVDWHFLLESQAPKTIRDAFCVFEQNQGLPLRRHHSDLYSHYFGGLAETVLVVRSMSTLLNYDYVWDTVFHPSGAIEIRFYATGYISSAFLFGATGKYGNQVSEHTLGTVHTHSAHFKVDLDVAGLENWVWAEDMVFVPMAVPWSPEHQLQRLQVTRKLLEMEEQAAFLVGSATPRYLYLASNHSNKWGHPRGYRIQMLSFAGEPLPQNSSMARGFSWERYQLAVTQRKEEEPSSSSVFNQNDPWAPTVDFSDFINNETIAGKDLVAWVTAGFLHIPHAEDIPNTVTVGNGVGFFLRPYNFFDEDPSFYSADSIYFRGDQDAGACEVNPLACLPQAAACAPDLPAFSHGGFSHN
Chain of rat VAP-1 enzyme (SSAO) (O08590 whole entry): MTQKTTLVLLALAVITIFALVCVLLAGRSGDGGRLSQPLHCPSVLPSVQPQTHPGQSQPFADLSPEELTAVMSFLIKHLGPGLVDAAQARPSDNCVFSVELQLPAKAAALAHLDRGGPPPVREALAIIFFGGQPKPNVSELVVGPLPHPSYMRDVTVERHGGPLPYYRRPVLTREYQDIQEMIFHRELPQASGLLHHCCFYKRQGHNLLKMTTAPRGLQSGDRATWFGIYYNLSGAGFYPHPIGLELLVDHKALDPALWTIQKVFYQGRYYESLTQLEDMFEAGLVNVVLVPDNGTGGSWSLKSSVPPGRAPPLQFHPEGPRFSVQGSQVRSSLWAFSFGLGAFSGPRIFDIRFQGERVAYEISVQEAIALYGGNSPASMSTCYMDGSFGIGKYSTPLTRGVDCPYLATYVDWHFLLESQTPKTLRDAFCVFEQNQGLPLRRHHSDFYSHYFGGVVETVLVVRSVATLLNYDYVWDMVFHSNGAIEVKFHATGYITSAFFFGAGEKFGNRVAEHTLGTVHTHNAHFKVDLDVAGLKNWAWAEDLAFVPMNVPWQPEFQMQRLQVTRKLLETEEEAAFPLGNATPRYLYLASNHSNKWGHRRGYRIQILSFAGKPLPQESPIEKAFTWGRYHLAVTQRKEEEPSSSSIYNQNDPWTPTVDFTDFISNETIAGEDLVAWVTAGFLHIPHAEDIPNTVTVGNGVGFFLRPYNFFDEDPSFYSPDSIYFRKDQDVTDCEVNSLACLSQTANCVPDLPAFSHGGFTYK

SMILES	IC50 (rat VAP-1 enzyme (SSAO))	Inhibition Ratio (%) of plasma VAP-1 activity, 1 h [1]	Inhibition Ratio (%) of plasma VAP-1 activity, 3 h [1]	Inhibition Ratio (%) of plasma VAP-1 activity, 6 h [1]	Inhibition Ratio (%) of plasma VAP-1 activity, 12 h [1]	IC50 [2]
CN(Cc1cccc(-c2cnc(N3CCN(c4ncc(/C=C/C(=O)O)cc4Cl)CC3)nc2)c1)C(=O)CN [Example 33]	21 nM	84%	87%	97%	83%	31 nM
CN(Cc1cccc(-c2cnc(N3CCC(N4CCOCC4)CC3)nc2)c1)C(=O)CN [Example 51]	21 nM	30%	37%	43%	32%	48 nM
CN(Cc1cccc(-c2cnc(N3CCOCC3)nc2)c1)C(=O)CN [Example 69, N-methyl-N-[3-(2-morpholin-4-ylpyrimidin-5-yl)benzyl]glycinamide L-tartrate]	9.8 nM	72%	56%	39%	24%	32 nM
CN(Cc1cccc(-c2cnc(N3CCN(c4ccc(C#N)nc4)CC3)nc2)c1)C(=O)CN [Example 261, N-(3-{2-[4-(6-cyanopyridin-3-yl)piperazin-1-yl]pyrimidin-5-yl}benzyl)-N-methylglycinamide L-tartrate]	21 nM	36%	44%	45%	32%	17 nM
CN(Cc1cccc(-c2cnc(N3CCN(c4ccc(C(=O)O)cc4Cl)CC3)nc2)c1)C(=O)CN [Example 263, 3-chloro-4-{4-[5-(3-{[glycyl(methyl)amino)methyl}phenyl)pyrimidin-2-yl]piperazin-1-yl}benzoic acid dihydrochloride]	15 nM	97%	95%	80%	75%	25 nM
